Data from patent US11311560B2, “Cyclic plasmenylethanolamines” (MED-LIFE DISCOVERIES LP, priority 2017, dated 2022).
Entries after “also recorded” stand apart in the source; their conditions may differ.

Legend:
[1] = test system: Pex7 homozygous hypomorphic animals (Pex7^neo/neo); assay: Sub-chronic (9 weeks) dosing with PPI-1040: plasmalogen levels in plasma, liver, lung; type: in vivo, mouse; conditions: 89.7 mg/Kg intraperitoneal, 3 doses per week
Protocol: Pex7 homozygous hypomorphic animals)(Pex7^neo/neo) were used as a model of rhizomelic chondrodysplasia punctata to further test the ability of PPI-1040 to augment plasmalogen levels in a deficient system, following 9 weeks of sub-chronic dosing. PPI-1040 was stored in a sealed ampoule in solution with dichloromethane under argon gas until immediately before use. At time of treatment the ampoule was opened and dichloromethane was evaporated off under nitrogen gas for 10 minutes. Neobee M-5 was then added and the solution vortexed to generate a 22.4 mg/mL formulation. Animals were dosed via intraperitoneal injections with doses adjusted by weight to ensure an 89.7 mg/Kg dose to each animal. Animals were sacrificed following 9 weeks of treatment with 3 doses administered per week (Monday, Wednesday and Friday). Blood samples were collected in EDTA tubes and then spun down in a clinical centrifuge. Plasma samples were stored at −80° C. until thawed for analysis. Tissue samples were harvested and flash frozen in liquid nitrogen and then stored at −80° C. All tissue samples were homogenized using liquid nitrogen, generating a fine powder. Extraction and plasmalogen analysis by LC-MS/MS was carried out as described above.

[2] = In vitro acid stability (pH 1-5, one hour, FI-MS/MS); type: physicochemical
Protocol: To test the ability of the vinyl ether in PPI-1040 to withstand the acidic nature of the stomach the compound was exposed to a range of acid strengths (pH 1-5). The stability of the vinyl bond was tested by exposing PPI-1040 (formulated as indicated above) to a pH range from 1-5. The pH solutions were made by serial 10-fold dilutions of 1M HCL in HPLC grade water until pH 4 is reached. Pure HPLC grade water was used as the control solution. The final dilution was completed by added a 20 μl aliquot to 200 μl of the PPI-1040 formulation resulting in a pH range from 1-5 (each condition was tested in triplicate). The mixture was vortexed at room temperature for one hour. Following the one hour incubation each solution was re-suspended in ethyl acetate to obtain 10 μl/ml solution which was analyzed using flow injection tandem mass spectrometry (FI-MS/MS) on a API4000™ mass spectrometer (Applied Biosystems) coupled with Agilent 1100 HPLC pump and auto sampler.

[3] = test system: wild-type mouse hippocampal brain slices; assay: Long term potentiation (LTP) on multi-electrode array; type: cell-based; conditions: 0.5 μM, monitored for 60 mins, vs vehicle (0.2% DMSO)
Protocol: It is hypothesized that brain plasmalogen levels affect neurotransmission. Accordingly, in this study, wild-type mouse hippocampal brain slices were incubated in artificial cerebro-spinal fluid containing either vehicle or PPI-1040. The slices were incubated on a multi-electrode array (MEA) with electrodes spaced 100 μm apart. A single electrode was selected to stimulate Schaffer collaterals cells which triggered field excitatory post-synaptic potential (fEPSP) in the stratum radiatum. After 10 minutes of control recording, in the presences of either PPI-1040 or vehicle, long term potentiation (LTP) was induced by a single train of 10 bursts composed of 4 stimuli at 100 Hz each with a 200 millisecond interval between.

## CC/C=C\C/C=C\C/C=C\C/C=C\C/C=C\C/C=C\CCC(=O)OC(CO/C=C\CCCCCCCCCCCCCC)COP1(=O)NCCO1 (stereo not shown) [PPI-1040, 1-(((Z)-hexadec-1-en-1-yl)oxy)-3-((2-oxido-1,3,2-oxazaphospholidin-2-yl)oxy)propan-2-yl (4Z,7Z,10Z,13Z,16Z,19Z)-docosa-4,7,10,13,16,19-hexaenoate]
[1]
  16:0 plasmalogen pool in serum (FIG. 5: plasma): elevated to levels significantly above control
  liver levels of the target plasmalogen (16:0/22:6): elevated to above control levels
  liver total 16:0 plasmalogen pool: elevated to above control levels
  lung levels of the target plasmalogen (16:0/22:6): elevated to control levels
  lung total 16:0 plasmalogen pool: elevated to control levels
  target 16:0/22:6 ethanolamine plasmalogen in serum (FIG. 5: plasma): elevated to levels significantly higher than control
[2]; aqueous control and pH 1-5, one hour, room temperature
  level of the cyclized (closed ring) form after incubation: almost undetectable in all samples; also recorded: minimal intact PPI-1040 being observed
[2]; control and pH 3-5, one hour
  cleavage of the sn-1 vinyl-ether bond (loss of sn-1 group): minimal loss of the sn-1 group
[2]; pH 1, one hour
  cleavage of the sn-1 vinyl-ether bond (loss of sn-1 group): overall degradation of the molecule; also recorded: largely degraded
  stability of open ring form (PlsEtn 16:0/22:6): very little being detected
[2]; pH 2, one hour
  cleavage of the sn-1 vinyl-ether bond (loss of sn-1 group): cleavage of the vinyl group is prevalent; also recorded: observed beginning at pH2
  stability of open ring form (PlsEtn 16:0/22:6): slight reduction
[3]
  long term potentiation (LTP) of fEPSP: increased LTP compared to vehicle treated controls
